From paper PMC5627750 (International Journal of Nanomedicine, 2017) come the findings set out here.

One data set can be described thus: in vivo. The conditions noted are these: male, Sprague-Dawley, rat, iv, 10 mg.
The conditions of data set [1]: male, Sprague-Dawley, rat, in vivo, 10 mg/kg.
For a further data set, the system named is MI rat models. On the set-up: species or system Sprague-Dawley rats. The conditions noted are these: in vivo, iv, 10 mg/kg.
The format of data set [2] is physicochemical. The conditions noted are these: pH 7.4.

What is called AUC(0-inf) is total exposure, with the tail of the curve extrapolated. A lower AUC(0-inf) goes with low exposure. The AUC(0-t) is exposure summed from dosing to a finite time, without extrapolation to infinity. Lower therefore signals low exposure. Usually Vd stands for the apparent volume that relates the amount in the body to the concentration in plasma or blood. Low readings indicate little distribution into tissue, high ones wide distribution into tissue. Broadly, the clearance is a measure of how efficiently the substance is removed, as volume per time. A higher clearance goes with a high capacity for elimination. A word on the half-life: it is the time in which the quantity being followed falls by half. In “in vivo”, `COc1cc2c(c(OC)c1OC)-c1c(cc3c(c1OC)OCO3)CC(C)C(C)C2` (centres unmarked) [Sch B solution, Schisandrin B] gave an AUC(0-inf) of 13700 ± 1540 ng·h/mL, an AUC(0-t) of 12400 ± 1310 ng·h/mL, a Vd of 18.5 ± 2.61 L/kg and a clearance of 65.7 mL/min/kg. Further, the half-life in “in vivo” was 55.8 ± 5.4 min. In addition, in data set [1], the “time until cleared from the circulation” value is recorded as at most 4 h. The infarct size in the data set with MI rat models is on record as 36.5%. The “time to complete release of Sch B” value in data set [2] is on record as at most 2 h.
